# Assay results taken from US20040142920A1, “Bipiperidinyl-derivatives and their use as chemokine receptors inhibitors” (priority 2001, published 2004).
# What was measured:
# Human CCR5 [1] = biological target: T1, Human CCR5 (Homo sapiens, UniProt P51681); experiment: CCR5 functional assay - Ca2+ mobilization in CHO K1 transfectants; assay type: cell-based; parameters: expressed in transfected cells
# Protocol: b) CCR5 Functional Assay—Ca^2+ Mobilization
# These CCR5 transfectants are used for assessing Ca^2+ mobilization in response to stimulation by the CCR5 ligands MIP-1α, MIP-1β, HCC-1(9-74) or RANTES. For the assay the cells are loaded with a Ca^2+-sensitive fluorochrome (Fluo3 or Fluo4). Ligand concentrations between 0.01-100 nM are used to induce Ca^2+ mobilization which is monitored in a fluorometer with appropriate settings.
# To assess the activity of the compounds to be tested, a baseline fluorescence reading is taken after which the compounds at the desired concentration are added to the cells and fluorescence is further recorded for a certain time to assess whether compounds show agonistic effects. Next the agonist is added to the mixture and fluorescence monitored. The inhibition of Ca^2+ flux in the presence of the compounds to be tested is calculated from the inhibition of maximal fluorescence induced by the agonist. IC50 values are calculated from dose-response curves obtained with the compounds. […] For example, compounds of Example 1, 18 and 52 have an IC50 of 10, 9 and 4, respectively.
# Human CCR5 [2] = biological target: T1, Human CCR5; experiment: CCR5 membrane binding assay (125-I MIP-1α radioligand)
# Protocol: a) CCR5 Membrane Binding Assay
# Human CCR5 is used to generate stable transfectants in CHO K1 cells. Membranes prepared from these CCR5 transfectants are used In a radioligand binding assay using 125-I MIP-1α as a ligand and the compounds of formula I are tested for inhibitory activity. The data are reported as IC50, i.e. the concentration of compound required to achieve 50% inhibition of [I-125]MIP-1α binding.
# T1 sequence (P51681 whole entry): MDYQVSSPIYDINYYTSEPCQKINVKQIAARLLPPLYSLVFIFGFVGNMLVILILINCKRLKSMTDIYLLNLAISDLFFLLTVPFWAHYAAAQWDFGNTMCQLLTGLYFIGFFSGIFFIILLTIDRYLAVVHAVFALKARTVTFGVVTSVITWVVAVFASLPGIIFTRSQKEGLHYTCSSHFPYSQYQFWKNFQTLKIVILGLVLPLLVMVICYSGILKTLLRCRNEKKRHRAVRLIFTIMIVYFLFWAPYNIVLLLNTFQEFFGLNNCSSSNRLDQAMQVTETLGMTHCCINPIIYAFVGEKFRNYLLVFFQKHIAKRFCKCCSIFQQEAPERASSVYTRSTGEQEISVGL
compound,measurement,setting,value
CC1(N2CCC(N(c3ccccc3)c3ccccc3)CC2)CCN(C(=O)c2c(Cl)c[n+]([O-])cc2Cl)CC1 [Example 18],IC50,"Human CCR5 [1]; CCR5-transfected CHO K1 cells, agonist MIP-1α, MIP-1β, HCC-1(9-74) or RANTES, Fluo3 or Fluo4, read-out: IC50, inhibition of Ca2+ flux",9 nM
"Cc1cccc(C)c1C(=O)N1CCC(C)(N2CCC(N(Cc3ccccc3)c3ccc(Br)cc3)CC2)CC1 [Example 52, {4-[Benzyl-(4-bromo-phenyl)amino]-4′-methyl-[1,4′]bipiperidinyl-1′-yl}-(2,6-dimethyl-phenyl)-methanone]",IC50,Human CCR5 [1],4 nM
"Cc1nc(CN(c2ccccc2)C2CCN(C3(C)CCN(C(=O)c4c(C)cc[n+]([O-])c4C)CC3)CC2)cs1 [Example 83, (2,4-Dimethyl-1-oxy-pyridin-3-yl)-{4′-methyl-4-[(2-methyl-thiazol-4-ylmethyl)-phenyl-amino]-[1,4′]bipiperidinyl-1′-yl}-methanone]",IC50,Human CCR5 [2],2 to 3 nM
